One experiment has as its system SCD1. In words: Measurement of SCD1 expression in SZ95-SCD1-HiBit cells (HiBiT assay). The settings on record: Homo sapiens, 48 h; for EC50: SCD1 protein production, luminescence, initial dilution 1:3 in DMSO, read-out: HiBit EC50. It is filed as cell-based. A general note: With HiBiT, luminescence reflects the tagged protein that the partner subunit can reach.
The next experiment deals with SZ95 sebocytes. In words: Sentinel Lipid Assay (SLA), desaturation index in SZ95 sebocytes. As to conditions: Homo sapiens, 72 h; for EC50: desaturation index, lowest dose used 4.6 nM, read-out: SLA EC50. The experiment is classed as cell-based. The essentials: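 SZ95 human sebocytes on fibronectin-coated plates, dosed 72 h at 37 °C with 1:3 dilutions from 10 μM; lipids extracted with deuterated triglyceride internal standards and quantified by LC-MS/MS (MRM) as 11 sentinel lipids. Desaturation index from elastic-net coefficients, normalized to DMSO; Amax relative to a reference LXR agonist.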

Where [1] appears, read: normalized Amax based on the reference compound Amax of 100%, read-out: HiBit Normalized Amax.
Setting [2] is: SZ95-SCD1-HiBit cells, compared to reference compound, read-out: HiBit Amax.
[3] abbreviates: normalized Amax based on the reference compound Amax of 100%, read-out: SLA Normalized Amax.
The mark [4] stands for this setting: SZ95 cells, compared to reference compound, read-out: SLA Amax.

Among the data in patent US11427586B2, “1,2,4-oxadiazole derivatives as liver X receptor agonists” (NOVARTIS AG, priority 2019, dated 2022) are Emax and EC50 values, retold here.

The structures appear in SMILES notation. Read-outs that look alike come from different tables or passages of the source.

What is called EC50 is the concentration giving half of the maximal effect. On to `CC(COc1ccc(-c2noc(CN3C(=O)N(CCN4CCOCC4)C4(CCN(C(=O)c5cncnc5)CC4)C3=O)n2)cc1C(F)(F)F)(C(F)(F)F)C(F)(F)F` [Compound 30, 1-(2-morpholinoethyl)-8-(pyrimidine-5-carbonyl)-3-((3-(4-(3,3,3-trifluoro-2-methyl-2-(trifluoromethyl)propoxy)-3-(trifluoromethyl)phenyl)-1,2,4-oxadiazol-5-yl)methyl)-1,3,8-triazaspiro[4.5]decane-2,4-dione], for which the Emax with SCD1 (setting [1]) stood at 89.3%; with SCD1 (setting [2]), 84.9%; in the experiment with SZ95 sebocytes (setting [3]), 85.5%; in the experiment with SZ95 sebocytes (setting [4]), 82.1%. The figures for the concentration giving a half-maximal response (EC50) in the experiment with SCD1 (SZ95-SCD1-HiBit cells) and in the experiment with SZ95 sebocytes (SZ95 cells) were 1.04 nM and 34.4 nM, respectively.

`CC(COc1ccc(-c2noc(CN3C(=O)N(CCC4CCOCC4)C4(CCN(C(=O)c5cncnc5)CC4)C3=O)n2)cc1C(F)(F)F)(C(F)(F)F)C(F)(F)F` [Compound 31, 8-(pyrimidine-5-carbonyl)-1-(2-(tetrahydro-2H-pyran-4-yl)ethyl)-3-((3-(4-(3,3,3-trifluoro-2-methyl-2-(trifluoromethyl)propoxy)-3-(trifluoromethyl)phenyl)-1,2,4-oxadiazol-5-yl)methyl)-1,3,8-triazaspiro[4.5]decane-2,4-dione]: the Emax in the experiment with SCD1 (setting [1]) was determined as 82.3%; in the experiment with SCD1 (setting [2]), 78.3%; with SZ95 sebocytes (setting [3]), 100%; with SZ95 sebocytes (setting [4]), 96.3%. In addition, the values for the EC50 in the experiment on SCD1 (SZ95-SCD1-HiBit cells) and in the experiment with SZ95 sebocytes (SZ95 cells) were 0.44 nM and at most 4.6 nM, respectively.

For `CC(C)CS(=O)(=O)c1ccccc1Oc1ccc(-c2noc(CN3C(=O)N(CCN4CCOCC4)C4(CCN(C(=O)CCN(C)C)CC4)C3=O)n2)cc1C(F)(F)F` [Compound 32, 8-(3-(dimethylamino)propanoyl)-3-((3-(4-(2-(isobutylsulfonyl)phenoxy)-3-(trifluoromethyl)phenyl)-1,2,4-oxadiazol-5-yl)methyl)-1-(2-morpholinoethyl)-1,3,8-triazaspiro[4.5]decane-2,4-dione], the Emax with SCD1 (setting [1]) was determined as 84.9%; in the experiment with SCD1 (setting [2]), 80.7%; in the experiment with SZ95 sebocytes (setting [3]) it was 100%; with SZ95 sebocytes (setting [4]), 96.2%. In addition, the EC50 in the experiment with SCD1 (SZ95-SCD1-HiBit cells) is 2.42 nM; in the experiment on SZ95 sebocytes (SZ95 cells), at most 4.6 nM.

As to `CC(C)CS(=O)(=O)c1ccccc1Oc1ccc(-c2noc(CN3C(=O)N(CCN4CCOCC4)C4(CCN(C(=O)C5CCN(C)CC5)CC4)C3=O)n2)cc1C(F)(F)F` [Compound 33, 3-((3-(4-(2-(isobutylsulfonyl)phenoxy)-3-(trifluoromethyl)phenyl)-1,2,4-oxadiazol-5-yl)methyl)-8-(1-methylpiperidine-4-carbonyl)-1-(2-morpholinoethyl)-1,3,8-triazaspiro[4.5]decane-2,4-dione], the Emax was 113% in the experiment with SCD1 (setting [1]), 107% with SCD1 (setting [2]), 121% in the experiment with SZ95 sebocytes (setting [3]) and 116% with SZ95 sebocytes (setting [4]). Moreover, the half-maximal effective concentration (EC50) with SCD1 (SZ95-SCD1-HiBit cells) is 8.53 nM; with SZ95 sebocytes (SZ95 cells), at most 4.6 nM.

With `CC(C)CS(=O)(=O)c1ccccc1Oc1ccc(-c2noc(CN3C(=O)N(CCN4CCOCC4)C4(CCN(C(=O)c5ccncn5)CC4)C3=O)n2)cc1C(F)(F)F` [Compound 34, 3-((3-(4-(2-(isobutylsulfonyl)phenoxy)-3-(trifluoromethyl)phenyl)-1,2,4-oxadiazol-5-yl)methyl)-1-(2-morpholinoethyl)-8-(pyrimidine-4-carbonyl)-1,3,8-triazaspiro[4.5]decane-2,4-dione], the Emax was found to be 85.7% in the experiment with SCD1 (setting [1]), 81.5% in the experiment on SCD1 (setting [2]), 171% with SZ95 sebocytes (setting [3]) and 164% in the experiment with SZ95 sebocytes (setting [4]). The concentration giving a half-maximal response (EC50) was 0.38 nM in the experiment with SCD1 (SZ95-SCD1-HiBit cells) and at most 4.6 nM in the experiment on SZ95 sebocytes (SZ95 cells).

As to `CCCC(=O)N1CCC2(CC1)C(=O)N(Cc1nc(-c3ccc(Oc4ccccc4S(=O)(=O)CC(C)C)c(C(F)(F)F)c3)no1)C(=O)N2CCN1CCOCC1` [Compound 35, 8-butyryl-3-((3-(4-(2-(isobutylsulfonyl)phenoxy)-3-(trifluoromethyl)phenyl)-1,2,4-oxadiazol-5-yl)methyl)-1-(2-morpholinoethyl)-1,3,8-triazaspiro[4.5]decane-2,4-dione], the Emax turned out to be 73.1% with SCD1 (setting [1]), 69.5% in the experiment with SCD1 (setting [2]), 122% in the experiment on SZ95 sebocytes (setting [3]) and 117% in the experiment with SZ95 sebocytes (setting [4]). The EC50 is 0.616 nM in the experiment on SCD1 (SZ95-SCD1-HiBit cells) and 17.2 nM with SZ95 sebocytes (SZ95 cells).

Turning to `CC(C)CS(=O)(=O)c1ccccc1Oc1ccc(-c2noc(CN3C(=O)N(CCC4CCOCC4)C4(CCN(C(=O)c5cnccn5)CC4)C3=O)n2)cc1C(F)(F)F` [Compound 36, 3-((3-(4-(2-(isobutylsulfonyl)phenoxy)-3-(trifluoromethyl)phenyl)-1,2,4-oxadiazol-5-yl)methyl)-8-(pyrazine-2-carbonyl)-1-(2-(tetrahydro-2H-pyran-4-yl)ethyl)-1,3,8-triazaspiro[4.5]decane-2,4-dione], the Emax in the experiment on SCD1 (setting [1]) was 81.5%; in the experiment on SCD1 (setting [2]), 77.5%; in the experiment with SZ95 sebocytes (setting [3]), 131%; with SZ95 sebocytes (setting [4]), 126%. For the same compound, the EC50 in the experiment with SCD1 (SZ95-SCD1-HiBit cells) was 0.119 nM; in the experiment with SZ95 sebocytes (SZ95 cells), at most 4.6 nM.

With `CC(C)CS(=O)(=O)c1ccccc1Oc1ccc(-c2noc(CN3C(=O)N(CCC4CCOCC4)C4(CCN(C(=O)c5cncnc5)CC4)C3=O)n2)cc1C(F)(F)F` [Compound 37, 3-((3-(4-(2-(isobutylsulfonyl)phenoxy)-3-(trifluoromethyl)phenyl)-1,2,4-oxadiazol-5-yl)methyl)-8-(pyrimidine-5-carbonyl)-1-(2-(tetrahydro-2H-pyran-4-yl)ethyl)-1,3,8-triazaspiro[4.5]decane-2,4-dione], the Emax in the experiment with SCD1 (setting [1]) was found to be 91.8%; with SCD1 (setting [2]), 87.3%; in the experiment on SZ95 sebocytes (setting [3]) it was 145%; with SZ95 sebocytes (setting [4]) it was 140%. The EC50 with SCD1 (SZ95-SCD1-HiBit cells) is 0.066 nM; in the experiment with SZ95 sebocytes (SZ95 cells), at most 4.6 nM.

On to `CC1(C)C(=O)N(Cc2nc(-c3ccc(Oc4ccccc4S(=O)(=O)CC4CCOC4)c(C(F)(F)F)c3)no2)C(=O)N1CCN1CCOCC1` (stereo not drawn) [Compound 38, 5,5-dimethyl-1-(2-morpholinoethyl)-3-((3-(4-(2-(((tetrahydrofuran-3-yl)methyl)sulfonyl)phenoxy)-3-(trifluoromethyl)phenyl)-1,2,4-oxadiazol-5-yl)methyl)imidazolidine-2,4-dione], for which the Emax was determined as 75.8% with SCD1 (setting [1]), 72.1% in the experiment on SCD1 (setting [2]), 160% with SZ95 sebocytes (setting [3]) and 154% with SZ95 sebocytes (setting [4]). Besides, the EC50 in the experiment with SCD1 (SZ95-SCD1-HiBit cells) is 5.26 nM; with SZ95 sebocytes (SZ95 cells), at most 4.6 nM.

Consider `CC1(C)C(=O)N(Cc2nc(-c3ccc(Oc4ccccc4S(=O)(=O)C4CC(O)C4)c(C(F)(F)F)c3)no2)C(=O)N1CCN1CCOCC1` (stereo not drawn) [Compound 39, 3-((3-(4-(2-((3-hydroxycyclobutyl)sulfonyl)phenoxy)-3-(trifluoromethyl)phenyl)-1,2,4-oxadiazol-5-yl)methyl)-5,5-dimethyl-1-(2-morpholinoethyl)imidazolidine-2,4-dione], for which the Emax in the experiment with SCD1 (setting [1]) is 93.9%; in the experiment on SCD1 (setting [2]) it was 89.3%; with SZ95 sebocytes (setting [3]), 170%; with SZ95 sebocytes (setting [4]), 164%. For the same compound, the EC50 in the experiment with SCD1 (SZ95-SCD1-HiBit cells) is 1.4 nM; with SZ95 sebocytes (SZ95 cells), at most 4.6 nM.

Turning to `CC1(C)C(=O)N(Cc2nc(-c3ccc(Oc4ccccc4S(=O)(=O)CC4CCCOC4)c(C(F)(F)F)c3)no2)C(=O)N1CCN1CCOCC1` (stereo not drawn) [Compound 40, 5,5-dimethyl-1-(2-morpholinoethyl)-3-((3-(4-(2-(((tetrahydro-2H-pyran-3-yl)methyl)sulfonyl)phenoxy)-3-(trifluoromethyl)phenyl)-1,2,4-oxadiazol-5-yl)methyl)imidazolidine-2,4-dione], the Emax in the experiment on SCD1 (setting [1]) was determined as 74.7%; with SCD1 (setting [2]), 71%; in the experiment with SZ95 sebocytes (setting [3]), 168%; with SZ95 sebocytes (setting [4]), 161%. In addition, the 50% effective concentration (EC50) in the experiment on SCD1 (SZ95-SCD1-HiBit cells) was 7.08 nM; with SZ95 sebocytes (SZ95 cells), at most 4.6 nM.

On to `CC1(C)C(=O)N(Cc2nc(-c3ccc(Oc4ccccc4C(F)(F)F)c(C(F)(F)F)c3)no2)C(=O)N1CCN1CCOCC1` [Compound 41, 5,5-dimethyl-1-(2-morpholinoethyl)-3-((3-(3-(trifluoromethyl)-4-(2-(trifluoromethyl)phenoxy)phenyl)-1,2,4-oxadiazol-5-yl)methyl)imidazolidine-2,4-dione], for which the Emax with SCD1 (setting [1]) is 93%; in the experiment on SCD1 (setting [2]) it was 88.4%; with SZ95 sebocytes (setting [3]), 92.2%; in the experiment with SZ95 sebocytes (setting [4]), 88.5%. In addition, the values for the concentration for a half-maximal effect (EC50) with SCD1 (SZ95-SCD1-HiBit cells) and in the experiment with SZ95 sebocytes (SZ95 cells) were 0.167 nM and at most 4.6 nM, respectively.

With `CC1(C)C(=O)N(Cc2nc(-c3ccc(OCC(C)(C(F)(F)F)C(F)(F)F)c(C(F)(F)F)c3)no2)C(=O)N1CCN1CCOCC1` [Compound 42, 5,5-dimethyl-1-(2-morpholinoethyl)-3-((3-(4-(3,3,3-trifluoro-2-methyl-2-(trifluoromethyl)propoxy)-3-(trifluoromethyl)phenyl)-1,2,4-oxadiazol-5-yl)methyl)imidazolidine-2,4-dione], the Emax amounted to 86.1% with SCD1 (setting [1]), 81.9% in the experiment on SCD1 (setting [2]), 157% in the experiment with SZ95 sebocytes (setting [3]) and 150% with SZ95 sebocytes (setting [4]). Moreover, the EC50 is 1.52 nM with SCD1 (SZ95-SCD1-HiBit cells) and at most 4.6 nM in the experiment with SZ95 sebocytes (SZ95 cells).

Consider `CC(CS(=O)(=O)c1ccccc1Oc1ccc(-c2noc(CN3C(=O)N(CCN4CCOCC4)C(C)(C)C3=O)n2)cc1C(F)(F)F)N1CCCC1` (stereo not drawn) [Compound 43, 5,5-dimethyl-1-(2-morpholinoethyl)-3-((3-(4-(2-((2-(pyrrolidin-1-yl)propyl)sulfonyl)phenoxy)-3-(trifluoromethyl)phenyl)-1,2,4-oxadiazol-5-yl)methyl)imidazolidine-2,4-dione], for which the Emax came out at 84.1% in the experiment with SCD1 (setting [1]), 80% in the experiment on SCD1 (setting [2]), 147% in the experiment with SZ95 sebocytes (setting [3]) and 141% with SZ95 sebocytes (setting [4]). Besides, the EC50 in the experiment on SCD1 (SZ95-SCD1-HiBit cells) was 1.15 nM; in the experiment on SZ95 sebocytes (SZ95 cells), at most 4.6 nM.
